Measurements taken from patent publication US20110110916A1, “METHODS FOR TREATING AND/OR PREVENTING CARDIOMYOPATHIES BY ERK OR JNK INHIBITION” (priority 2008, published 2011).
Entries after “also recorded” stand apart in the source; their conditions may differ.

Key:
Format in all cases: in vivo, mouse
Lmna^H222P/H222P mice = assay: Transthoracic echocardiography at 20 weeks of age, PD98059 or SP600125 from 16 to 20 weeks; conditions: for LVESD compared to DMSO-treated mice: 3 mg/kg/day; for FS and EF: after 4 weeks of treatment; for HR: heart rate; for further deterioration in cardiac function: treated from 16 to 20 weeks of age
Experimental: Using the methods described in Example 2, we treated Lmna^H222P/H222P mice with PD98059 alone or SP600125 alone, starting at 16 weeks of age, when ejection fraction has already deteriorated and left ventricular end diastolic diameter is increased, until 20 weeks of age.
SP600125, an anthrapyrazolone inhibitor of JNK, and PD98059, a 2′-amino-3′-methoxyflavone MAPK/ERK kinase (MEK) ½ inhibitor, (Calbiochem) were dissolved in dimethyl sulfoxide (DMSO) (Sigma) at a concentration of 1 mg/ml and were delivered to a dose of 3 mg/kg/day for 5 days a week. The placebo control consisted of DMSO alone and was delivered in the same volume. Placebo and inhibitors were administered by intraperitoneal injection using a 27⅝-gauge syringe. Treatments were started when mice were 16 weeks of age and continued until 20 weeks of age or when the mice were 19 weeks and continued until 24 weeks of age.
At 20 weeks or 24 weeks of age, mice were anesthetized with 1.5% isoflurane in O2 and placed on a heating pad (37° C.). Cardiac function was assessed by echocardiography with a Visualsonics Vevo 770 ultrasound with a 30 MHz transducer applied to the chest wall. Cardiac ventricular dimensions and fractional shortening (FS) were measured in 2D mode and M-mode three times in a modified short axis view for the number of animals indicated. A “blinded” echocardiographer (J.S.), unaware of the genotype or treatment, performed the examinations.
We assigned male Lmna^H222P/H222P mice 16 weeks of age to 3 different treatment arms (placebo DMSO, n=28; MEK1/2 inhibitor PD98059, n=22; JNK inhibitor SP600125, n=29) and examined parameters of cardiac structure and function at 20 weeks of age, after 4 weeks treatment. […] Lmna^H222P/H222P mice also have depressed cardiac contractility, with fractional shortening (FS) decreased by 20%-40% compared to Lmna^+/+ mice (13,15). Myocardial fibrosis occurs in Lmna^H222P/H222P mice at 16 weeks of age (16). At 20 weeks, LVEDD and LVESD increase further in Lmna^H222P/H222P mice and cardiac contractility also progressively deteriorates (16). During the 4-week treatment protocol, 6 mice in the DMSO group, 3 in the PD98059 group and 3 in the SP600125 group died prior to reaching 20 weeks of age for evaluation.

ERK1/2 = assay: Immunoblot of phosphorylated ERK1/2 versus total ERK1/2 in hearts of treated mice
Experimental: (§1) Hearts were excised from mice at 16-weeks of age and were homogenized in RIPA extraction buffer (Cell Signalling) containing protease inhibitors (25 […]). Protein samples were subjected to SDS-PAGE, transferred to nitrocellulose membranes and blotted with primary antibodies against ERK1/2 (Santa-Cruz), phosphorylated ERK1/2 (Cell Signaling), JNK (Santa-Cruz), natriuretic peptide precursor A (Santa-Cruz), phosphorylated JNK (Cell Signaling), and Gapdh (Ambion). Secondary antibodies were HRP-conjugated (Amersham). Recognized proteins were visualized by enhanced chemiluminescence (ECL, Amersham). The signal generated using an antibody against Gapdh was used as internal controls to normalize the amounts of protein between immunoblots.
We assessed the efficacy of the chemical entities in inhibiting their targets in the heart by immunoblot using anti-total ERK1/2 (Santa Cruz) and anti-pERK1/2 (Cell Signaling) antibodies.
(§2) Proteins were loaded on 10% SDS gels and electrotransferred on a […] pore size nitrocellulose membrane (Invitrogen). We used antibodies directed against phosphorylated ERK1/2 (Cell Signaling, 1:1,000), total ERK1/2 (Santa Cruz, 1:2,000), phosphorylated JNK (Cell Signaling, 1:1,000) and total JNK (Santa Cruz, 1:200). The secondary antibodies were coupled to horseradish-peroxydase (Amersham). Recognized proteins were visualized by enhanced chemiluminescence (SuperSignal® West Pico chemiluminescent substrate, Thermo Scientific).

JNK = assay: Immunoblot of phosphorylated JNK versus total JNK in hearts of treated mice; conditions: for phosphorylation of JNK / JNK signaling in heart: treated 8 to 16 weeks of age, 3 mg/kg/day i.p.
Experimental: as §1, §2

[1] = tested on: hearts from Lmna^H222P/H222P mice; assay: Quantification of myocardial fibrotic area (Gomori's trichrome); conditions: 20 weeks of age; 3 mg/kg/day from 16 to 20 weeks; DMSO 15.01±0.9%
Description: Later-stage cardiomyopathy caused by LMNA mutations is characterized by myocardial fibrosis. […] We quantified the myocardial fibrotic area of each animal by determining the ratio of fibrotic tissue (blue stained with Gomori's trichrome) to the total tissue area in each micrograph (FIG. 8B). Hearts from DMSO-treated Lmna^H222P/H222P mice had 20.93%±2.45% fibrotic tissue per total surface examined (FIG. 8B).
Mice were sacrificed at 20 weeks of age, and freshly removed hearts were fixed in 4% formaldehyde for 48 hours, embedded in paraffin, sectioned at 5 μm and stained with hematoxylin, eosin and Gomori's trichrome and Syrius Red. Representative stained sections were photographed using a Microphot SA (Nikon) light microscope attached to a Spot RT Slide camera (Diagnostic Instruments) with a 10× objective. Images were processed using Adobe Photoshop CS (Adobe Systems).
Later-stage cardiomyopathy caused by LMNA mutations is characterized by myocardial fibrosis (21,22). […] We quantified the myocardial fibrotic area of each animal by determining the ratio of fibrotic tissue (blue stained with Gomori's trichrome) to the total tissue area in each micrograph (FIG. 34C). Hearts from DMSO-treated Lmna^H222P/H222P mice had 15.01±0.9% fibrotic tissue per total surface examined (FIG. 34D).

[2] = 20 weeks of age, 3 mg/kg/day i.p. from 16 to 20 weeks
[3] = 20 weeks of age, 3 mg/kg/day i.p. from 16 to 20 weeks, means ± SEM
[4] = Lmna^H222P/H222P mice at 20 weeks of age, treated from 16 to 20 weeks, means ± SEM
[5] = Lmna^H222P/H222P mice at 20 weeks of age, treated from 16 to 20 weeks, means ± standard deviations
[6] = Lmna^H222P/H222P mice at 20 weeks of age, treated from 16 to 20 weeks
[7] = 3 mg/kg/day from 16 to 20 weeks of age
[8] = pilot study, 24 week-old mice treated from 19 weeks
[9] = treated 8 to 16 weeks of age, 3 mg/kg/day i.p.

SMILES: COc1cccc(-c2cc(=O)c3ccccc3o2)c1N [PD98059, 2-(2-amino-3-methoxyphenyl)-4H-1-benzopyran-4-one]
- LVEDD compared to DMSO-treated mice (Lmna^H222P/H222P mice; [2]): not significantly different
- increase of EF compared to the DMSO-treated group (Lmna^H222P/H222P mice; [2]): approximately 22%
- LVESD compared to DMSO-treated mice (Lmna^H222P/H222P mice; [2]): significantly smaller; also recorded: statistically significant reduction
- EF (Lmna^H222P/H222P mice; [3]): 65.46%±2.64%
- FS and EF (Lmna^H222P/H222P mice; 20 weeks of age): increased
- EF (Lmna^H222P/H222P mice; [4]): 65.46 ± 2.64 %
- FS (Lmna^H222P/H222P mice; [4]): 35.91 ± 1.88 %
- LVEDD (Lmna^H222P/H222P mice; [4]): 3.55 ± 0.11 mm
- LVESD (Lmna^H222P/H222P mice; [4]): 2.41 ± 0.11 mm
- EF (Lmna^H222P/H222P mice; [5]): 65.46 ± 11.49 %
- FS (Lmna^H222P/H222P mice; [5]): 35.91 ± 8.21 %
- IVSD (Lmna^H222P/H222P mice; [5]): 0.66 ± 0.05 mm
- LVEDD (Lmna^H222P/H222P mice; [5]): 3.55 ± 0.50 mm
- LVESD (Lmna^H222P/H222P mice; [5]): 2.41 ± 0.50 mm
- LVPW (Lmna^H222P/H222P mice; [5]): 0.69 ± 0.08 mm
- HR (Lmna^H222P/H222P mice; [6]): 350 beats per minute
- further deterioration in cardiac function (Lmna^H222P/H222P mice): prevented further deterioration
- phosphorylation of ERK1/2 in hearts (ERK1/2; [7]): partially blocked
- phosphorylation of ERK1/2 in hearts (ERK1/2; [8]): partially blocked
- phosphorylation of ERK1/2 in hearts (ERK1/2; [9]): inhibited
- phosphorylation of JNK in hearts (JNK; [7]): not significantly inhibited
- phosphorylation of JNK / JNK signaling in heart (JNK): did not observe inhibition
- area of fibrotic tissue per total surface examined [1]: 4.48%±1%

SMILES: O=C1c2ccccc2-c2n[nH]c3cccc1c23 [SP600125, anthra[1,9-cd]pyrazol-6(2H)-one]
- LVEDD compared to DMSO-treated mice (Lmna^H222P/H222P mice; [2]): not significantly different
- LVESD compared to DMSO-treated mice (Lmna^H222P/H222P mice; [2]): significantly smaller; also recorded: statistically significant reduction
- EF (Lmna^H222P/H222P mice; [3]): 61.88%±1.66%
- FS and EF (Lmna^H222P/H222P mice; 20 weeks of age): increased
- EF (Lmna^H222P/H222P mice; [4]): 61.88 ± 1.66 %
- FS (Lmna^H222P/H222P mice; [4]): 33.11 ± 1.16 %
- LVEDD (Lmna^H222P/H222P mice; [4]): 3.73 ± 0.08 mm
- LVESD (Lmna^H222P/H222P mice; [4]): 2.67 ± 0.10 mm
- EF (Lmna^H222P/H222P mice; [5]): 61.88 ± 8.46 %
- FS (Lmna^H222P/H222P mice; [5]): 33.11 ± 5.92 %
- IVSD (Lmna^H222P/H222P mice; [5]): 0.63 ± 0.07 mm
- LVEDD (Lmna^H222P/H222P mice; [5]): 3.73 ± 0.42 mm
- LVESD (Lmna^H222P/H222P mice; [5]): 2.67 ± 0.49 mm
- LVPW (Lmna^H222P/H222P mice; [5]): 0.66 ± 0.09 mm
- HR (Lmna^H222P/H222P mice; [6]): 363 beats per minute
- further deterioration in cardiac function (Lmna^H222P/H222P mice): prevented further deterioration
- phosphorylation of ERK1/2 in hearts (ERK1/2; [7]): not significantly inhibited
- phosphorylation of ERK1/2 in hearts (ERK1/2; [9]): did not block
- phosphorylation of JNK in hearts (JNK; [7]): partially blocked
- phosphorylation of JNK in hearts (JNK; [8]): partially blocked
- phosphorylation of JNK / JNK signaling in heart (JNK): blocked
- area of fibrotic tissue per total surface examined [1]: 5.86%±0.4%
